Values joined by “and” are separate entries in the source; they are usually repeats but may differ in a detail not shown here. Equal entries are not always repeated.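 Briefly, cells in 96-well plates were exposed to five compound concentrations for 48 h, and endpoints were estimated by linear interpolation. GI50 marks 50% less growth. TGI: total growth inhibition.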
What was measured:
Test in all cases: NCI tumour cell line growth inhibition, 48 h
P388/ADR leukemia = tested on: P388/ADR leukemia
MDA-MB-231 breast = tested on: MDA-MB-231 breast
KM20L2 colon = tested on: KM20L2 colon
SN12K1 renal = tested on: SN12K1 renal
NCI/ADR-RES ovarian = tested on: NCI/ADR-RES ovarian
MDA-MB-435 = tested on: MDA-MB-435
T-47D breast = tested on: T-47D breast
BT-549 breast = tested on: BT-549 breast
RXF-631 renal = tested on: RXF-631 renal

Row | Structure (SMILES) | TGI (KM20L2 colon) [µM] | TGI (RXF-631 renal) [µM] | other results
1 | Nc1ncnc2c(C3OC(CO)C(O)C3O)[nH]nc12 (stereo not drawn) | 8.26 |  | TGI (P388/ADR leukemia): 123 µM; GI50 (MDA-MB-231 breast): 0.0218 µM; TGI (MDA-MB-231 breast): 0.0705 µM; TGI (SN12K1 renal): 1.88 µM; GI50 (NCI/ADR-RES ovarian): 0.0484 µM; TGI (NCI/ADR-RES ovarian): 2.85 µM and 1.17 µM; GI50 (MDA-MB-435): 0.356 µM; TGI (MDA-MB-435): 8.42 µM; GI50 (T-47D breast): 0.0308 µM; TGI (T-47D breast): 1.57 µM; GI50 (BT-549 breast): 0.113 µM; TGI (BT-549 breast): 3.38 µM
2 | Cc1ccc(C2(O)CC(c3ccc([N+](=O)[O-])o3)=NN2C(=O)COc2ccccc2Cl)cc1 (stereo not drawn) | > 60 | > 55.1 | 
3 | O=C(CC(=O)Nc1ccccc1O)Nc1ccccc1O | > 100 | 49.9 | 
4 | COc1ccc2nc(NC(=O)C(=O)C(C(=O)c3ccccc3-c3ccccc3)C3OC(=O)c4ccccc43)sc2c1 (stereo not drawn) | 50.1 | 71.6 | 
5 | COc1cc(/C=C/c2ccc(OC(C)=O)cc2)cc(OC)c1OC | > 100 | > 100 | 
6 | COc1cc([C@@H]2c3cc4c(cc3[C@@H](NCc3ccccc3)C3COC(=O)[C@@H]32)OCO4)cc(OC)c1O (stereo partly drawn) | 85.6 | 30.2 | 
7 | N#CCN1CCOCCOCCN(CC#N)CCOCCOCC1 | > 100 | > 100 | 
8 | Cc1c(C(=O)/C=C/c2ccccc2Cl)[n+](=O)c2ccccc2n1[O-] | 30.6 | 36.5 | 
9 | O=C(/C=C/c1ccccc1O)c1cccnc1 | > 100 | > 100 | 
10 | Cc1ccc(NC(=O)CC/C(CC(=O)c2ccc(F)cc2)=N\NC(=O)C(=O)NN)cc1C | > 100 | > 100 | 
11 | Cc1ccccc1NC(=O)C1C(=O)N(c2ccccc2C)C(=O)/C1=N\N (stereo not drawn) | > 100 | > 100 | 
12 | Cc1ccc(S(=O)(=O)SCc2ccccc2CSS(=O)(=O)c2ccc(C)cc2)cc1 | > 100 | > 100 | 
13 | CCC[CH2][Ge]([CH2]CCC)([CH2]CCC)[O]C(=O)C(O)c1ccccc1 (stereo not drawn) | 22 | 31.9 | GI50 (KM20L2 colon): 2.18 µM; GI50 (RXF-631 renal): 5.7 µM
14 | CCOC(=O)N1N=NC2C3OC(C[C@@]3(C#N)OC(C)=O)[C@H]21 (stereo partly drawn) | > 100 | > 100 | 
15 | CC1=C(C(=O)CC(=O)C(=O)Nc2ccccc2)Sc2ccccc2N1 | > 100 | > 100 | 

From PubChem BioAssay (NCI)
